Among the data in patent publication US10959925B2, “Hair cosmetic composition” (KAO CORPORATION, priority 2016, dated 2021) are logP values, retold here.

A short description of this series: physchem.

One may read the logP as a log measure of how a compound divides between an organic and an aqueous phase. `CC1COC(=O)O1` (stereo not shown) [propylene carbonate] yielded a log partition coefficient (logP) of -0.41.
